Patent publication US20230102554A1 (GB002, INC., priority 2019, published 2023)

Columns and labels:
[1] = target: T1, Human PDGFRβ, cytoplasmic domain (GST-PDGFRβ) (Homo sapiens, UniProt P09619); assay: Human PDGFRβ biochemical inhibition assay (off-chip Mobility Shift Assay)
T1 construct: made in house
How it was run: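 GST-tagged cytoplasmic domain (aa 557-1106) from baculovirus was incubated 1 h at room temperature with compound, CSKtide, ATP at Km and Mg²⁺ in HEPES buffer, pH 7.5. Phosphorylated and unphosphorylated peptide were separated by off-chip mobility shift, and the product ratio P/(P+S) gave percent inhibition.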

[2] = target: T2, Human PDGFRα, cytoplasmic domain (GST-PDGFRα) (Homo sapiens, UniProt P16234); assay: Human PDGFRα biochemical inhibition assay (off-chip Mobility Shift Assay)
T2 construct: made in house
T2 sequence (P16234 550-1089 T674I): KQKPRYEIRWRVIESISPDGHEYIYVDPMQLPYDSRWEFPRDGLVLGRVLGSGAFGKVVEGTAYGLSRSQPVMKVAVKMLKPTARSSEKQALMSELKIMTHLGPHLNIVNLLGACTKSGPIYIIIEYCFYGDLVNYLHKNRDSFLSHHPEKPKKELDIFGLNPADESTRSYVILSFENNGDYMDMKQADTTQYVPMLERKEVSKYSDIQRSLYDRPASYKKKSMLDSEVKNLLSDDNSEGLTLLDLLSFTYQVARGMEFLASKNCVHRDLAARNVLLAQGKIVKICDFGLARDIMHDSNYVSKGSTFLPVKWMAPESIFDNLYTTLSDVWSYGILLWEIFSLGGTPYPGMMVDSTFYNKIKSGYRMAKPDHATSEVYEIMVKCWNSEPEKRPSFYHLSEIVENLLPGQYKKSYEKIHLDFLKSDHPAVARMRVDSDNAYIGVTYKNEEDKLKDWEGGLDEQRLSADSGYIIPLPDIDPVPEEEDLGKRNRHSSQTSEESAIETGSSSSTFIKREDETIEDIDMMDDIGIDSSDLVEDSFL

T1 sequence (P09619 with tags, fused parts or gaps): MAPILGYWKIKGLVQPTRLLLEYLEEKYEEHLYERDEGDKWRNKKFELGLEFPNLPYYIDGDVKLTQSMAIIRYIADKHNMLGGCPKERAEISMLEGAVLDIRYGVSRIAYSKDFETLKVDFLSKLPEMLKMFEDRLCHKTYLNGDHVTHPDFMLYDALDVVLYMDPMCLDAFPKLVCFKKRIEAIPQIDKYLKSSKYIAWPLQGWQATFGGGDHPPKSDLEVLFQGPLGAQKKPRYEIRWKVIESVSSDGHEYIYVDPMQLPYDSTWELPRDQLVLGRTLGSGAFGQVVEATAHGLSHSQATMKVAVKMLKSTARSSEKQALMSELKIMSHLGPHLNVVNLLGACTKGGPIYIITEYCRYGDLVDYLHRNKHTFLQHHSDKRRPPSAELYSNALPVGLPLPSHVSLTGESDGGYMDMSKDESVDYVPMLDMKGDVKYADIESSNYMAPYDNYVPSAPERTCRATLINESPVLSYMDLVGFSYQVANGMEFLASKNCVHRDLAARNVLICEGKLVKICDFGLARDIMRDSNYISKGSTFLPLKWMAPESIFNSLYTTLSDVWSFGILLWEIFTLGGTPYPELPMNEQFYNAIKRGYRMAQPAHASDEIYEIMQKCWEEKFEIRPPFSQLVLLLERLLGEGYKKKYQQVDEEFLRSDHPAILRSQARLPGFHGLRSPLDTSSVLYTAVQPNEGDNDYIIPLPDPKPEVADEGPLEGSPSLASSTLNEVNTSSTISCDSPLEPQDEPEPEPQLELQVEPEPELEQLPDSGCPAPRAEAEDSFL

`Cc1c[nH]c2ncc(N[C@@H](C)c3cccc(NC(=O)c4cncc(Cl)c4)c3)nc12` [Compound 565, (S)-5-chloro-N-(3-(1-((7-methyl-5H-pyrrolo[2,3-b]pyrazin-2-yl)amino)ethyl)phenyl)nicotinamide] was tested, and the IC50 [1] was less than 0.3 µM and the IC50 [2] was less than 0.3 µM.

With `CCn1cc(C(=O)Nc2cccc([C@H](C)Nc3cnc4cnn(C)c4n3)c2)cn1` [Compound 153, (S)-1-ethyl-N-(3-(1-((1-methyl-1H-pyrazolo[3,4-b]pyrazin-6-yl)amino)ethyl)phenyl)-1H-pyrazole-4-carboxamide] the IC50 [1] was less than 0.3 µM and the IC50 [2] was less than 0.3 µM.

For `CCn1cc2ncc(N[C@@H](C)c3cc(NC(=O)Cc4ccc(F)cn4)ccc3F)nc2n1` [Compound 649, (S)-N-(3-(1-((2-ethyl-2H-pyrazolo[3,4-b]pyrazin-6-yl)amino)ethyl)-4-fluorophenyl)-2-(5-fluoropyridin-2-yl)acetamide], the IC50 [1] was 0.3 to 1 µM and the IC50 [2] was less than 0.3 µM.

Work on `CCn1cc2ncc(N[C@@H](C)c3cccc(NC(=O)c4ccc(CN5CCCC6(COC6)C5)c(C)c4)c3)nc2n1` [Compound 481, (S)-4-((2-oxa-6-azaspiro[3.5]nonan-6-yl)methyl)-N-(3-(1-((2-ethyl-2H-pyrazolo[3,4-b]pyrazin-6-yl)amino)ethyl)phenyl)-3-methylbenzamide] yielded an IC50 [1] of less than 0.3 µM and an IC50 [2] of less than 0.3 µM.

In the case of `CCn1cc2ncc(N[C@@H](C)c3cc(NC(=O)c4cncc(C)c4)ccc3C)cc2n1` [Compound 501, (S)-N-(3-(1-((2-ethyl-2H-pyrazolo[4,3-b]pyridin-6-yl)amino)ethyl)-4-methylphenyl)-5-methylnicotinamide], the IC50 [1] is reported as less than 0.3 µM and the IC50 [2] is reported as less than 0.3 µM.

For `CCc1nc2cc(N[C@@H](C)c3cccc(NC(=O)c4cncc(C)c4)c3)cnc2[nH]1` [Compound 24], the IC50 [1] was 0.3 to 1 µM and the IC50 [2] was 0.3 to 1 µM.

`CCn1cc2ncc(N[C@@H](C)c3cc(NC(=O)Cc4ccc(C5CCC5)nc4)ccc3F)nc2n1` [Compound 671, (S)-2-(6-cyclobutylpyridin-3-yl)-N-(3-(1-((2-ethyl-2H-pyrazolo[3,4-b]pyrazin-6-yl)amino)ethyl)-4-fluorophenyl) acetamide] gave an IC50 [1] of no less than 1 µM and an IC50 [2] of less than 0.3 µM.

`CCn1cc2ncc(N[C@@H](C)c3cccc(NC(=O)c4ccc(F)c(Cl)c4)c3)nc2n1` [Compound 343, (S)-3-chloro-N-(3-(1-((2-ethyl-2H-pyrazolo[3,4-b]pyrazin-6-yl)amino)ethyl)phenyl)-4-fluorobenzamide] was tested, and the IC50 [1] was less than 0.3 µM and the IC50 [2] was less than 0.3 µM.

`C[C@H](Nc1cnc2cnn(C)c2n1)c1cccc(NC(=O)c2ccc3c(c2)CCC(=O)O3)c1` [Compound 72, (S)-N-(3-(1-((1-methyl-1H-pyrazolo[3,4-b]pyrazin-6-yl)amino)ethyl)phenyl)-2-oxochromane-6-carboxamide] gave an IC50 [1] of less than 0.3 µM and an IC50 [2] of less than 0.3 µM.

Compound `C[C@H](Nc1cnc2cnn(C)c2n1)c1cccc(NC(=O)c2cnc3c(c2)OCCO3)c1` [Compound 69, (S)-N-(3-(1-((1-methyl-1H-pyrazolo[3,4-b]pyrazin-6-yl)amino)ethyl)phenyl)-2,3-dihydro-[1,4]dioxino[2,3-b] pyridine-7-carboxamide] has an IC50 [1] of less than 0.3 µM and an IC50 [2] of less than 0.3 µM.

Compound `CCn1cc2ncc(N[C@@H](C)c3cccc(NC(=O)c4ccc(CN5CCN(C)CC5)c(C)c4)c3)nc2n1` [Compound 402, (S)-N-(3-(1-((2-ethyl-2H-pyrazolo[3,4-b]pyrazin-6-yl)amino)ethyl)phenyl)-3-methyl-4-((4-methylpiperazin-1-yl)methyl)benzamide] has an IC50 [1] of less than 0.3 µM and an IC50 [2] of less than 0.3 µM.

`CCn1cc2ncc(N[C@@H](C)c3cccc(NC(=O)Cc4ccc5c(n4)CCC5)c3)nc2n1` [Compound 718, (S)-2-(6,7-dihydro-5H-cyclopenta[b]pyridin-2-yl)-N-(3-(1-((2-ethyl-2H-pyrazolo[3,4-b]pyrazin-6-yl)amino)ethyl)phenyl)acetamide] showed an IC50 [1] of no less than 1 µM and an IC50 [2] of less than 0.3 µM.

`CCn1cc2ncc(N[C@@H](C)c3cccc(NC(=O)c4cnc(N5CCN(C)CC5)c(C)c4)c3)nc2n1` [Compound 396, (S)-N-(3-(1-((2-ethyl-2H-pyrazolo[3,4-b]pyrazin-6-yl)amino)ethyl)phenyl)-5-methyl-6-(4-methylpiperazin-1-yl) nicotinamide] was tested, and the IC50 [1] was less than 0.3 µM and the IC50 [2] was less than 0.3 µM.

`CCn1cc2ncc(N[C@@H](C)c3cc(NC(=O)c4cnc(F)c(C)c4)ccc3C)nc2n1` [Compound 512, (S)-N-(3-(1-((2-ethyl-2H-pyrazolo[3,4-b]pyrazin-6-yl)amino)ethyl)-4-methylphenyl)-6-fluoro-5-methylnicotinamide] gave an IC50 [1] of less than 0.3 µM and an IC50 [2] of less than 0.3 µM.

Compound `CCn1cc2ncc(N[C@@H](C)c3cccc(NC(=O)Cc4cc(C)c(Cl)cn4)c3)nc2n1` [Compound 695, (S)-2-(5-chloro-4-methylpyridin-2-yl)-N-(3-(1-((2-ethyl-2H-pyrazolo[3,4-b]pyrazin-6-yl)amino)ethyl)phenyl)acetamide] has an IC50 [1] of 0.3 to 1 µM and an IC50 [2] of less than 0.3 µM.

`CC(=O)Oc1ccc(C(=O)Nc2cccc([C@H](C)Nc3cnc4cnn(C)c4n3)c2)cc1` [Compound 214, (S)-4-((3-(1-((1-methyl-1H-pyrazolo[3,4-b]pyrazin-6-yl)amino)ethyl)phenyl)carbamoyl) phenyl acetate] showed an IC50 [1] of less than 0.3 µM and an IC50 [2] of less than 0.3 µM.

Compound `CNc1ncc(C(=O)Nc2cccc([C@H](C)Nc3cnc4[nH]cc(-c5cnn(C)c5)c4n3)c2)cc1C` [Compound 587, (S)-5-methyl-N-(3-(1-((7-(1-methyl-1H-pyrazol-4-yl)-5H-pyrrolo[2,3-b]pyrazin-2-yl)amino)ethyl)phenyl)-6-(methylamino)nicotinamide] has an IC50 [1] of less than 0.3 µM and an IC50 [2] of less than 0.3 µM.

Work on `C[C@H](Nc1cnc2[nH]cc(-c3cnn(C)c3)c2n1)c1cccc(NC(=O)c2ccc(N3CCCC3)nc2)c1` [Compound 585, (S)-N-(3-(1-((7-(1-methyl-1H-pyrazol-4-yl)-5H-pyrrolo[2,3-b]pyrazin-2-yl)amino)ethyl)phenyl)-6-(pyrrolidin-1-yl) nicotinamide] yielded an IC50 [1] of less than 0.3 µM and an IC50 [2] of less than 0.3 µM.

Work on `CCn1cc2ncc(N[C@@H](C)c3cccc(NC(=O)c4ccc(CN5CC6(COC6)C5)c(F)c4)c3)nc2n1` [Compound 468, (S)-4-((2-oxa-6-azaspiro[3.3]heptan-6-yl)methyl)-N-(3-(1-((2-ethyl-2H-pyrazolo[3,4-b]pyrazin-6-yl)amino)ethyl)phenyl)-3-fluorobenzamide] yielded an IC50 [1] of no less than 1 µM and an IC50 [2] of 0.3 to 1 µM.

In the case of `CCn1cc2ncc(N[C@@H](C)c3cc(NC(=O)c4ccc(CN5CCCC5)c(Cl)c4)ccc3F)nc2n1` [Compound 426, (S)-3-chloro-N-(3-(1-((2-ethyl-2H-pyrazolo[3,4-b]pyrazin-6-yl)amino)ethyl)-4-fluorophenyl)-4-(pyrrolidin-1-ylmethyl) benzamide], the IC50 [1] is reported as less than 0.3 µM and the IC50 [2] is reported as less than 0.3 µM.

`COc1ccc(C(=O)Nc2cccc([C@H](C)Nc3cnc4cnn(C)c4n3)c2)cc1OC` [Compound 203, (S)-3,4-dimethoxy-N-(3-(1-((1-methyl-1H-pyrazolo[3,4-b]pyrazin-6-yl)amino)ethyl)phenyl)benzamide] gave an IC50 [1] of less than 0.3 µM and an IC50 [2] of less than 0.3 µM.

`CCn1ccc2ncc(N[C@@H](C)c3cccc(NC(=O)c4cncc(C)c4)c3)nc21` [Compound 82, (S)-N-(3-(1-((5-ethyl-5H-pyrrolo[2,3-b]pyrazin-3-yl)amino)ethyl)phenyl)-5-methylnicotinamide] showed an IC50 [1] of 0.3 to 1 µM and an IC50 [2] of less than 0.3 µM.

Compound `CCn1cc2ncc(N[C@@H](C)c3cccc(NC(=O)c4cnc5[nH]ncc5c4)c3)nc2n1` [Compound 60, (S)-N-(3-(1-((2-ethyl-2H-pyrazolo[3,4-b]pyrazin-6-yl)amino)ethyl)phenyl)-1H-pyrazolo[3,4-b]pyridine-5-carboxamide] has an IC50 [1] of no less than 1 µM and an IC50 [2] of no less than 1 µM.

`CCn1cc2ncc(N[C@@H](C)c3cc(NC(=O)c4ccc(C(F)(F)F)nc4)cc(F)c3F)nc2n1` [Compound 491, (S)-N-(3-(1-((2-ethyl-2H-pyrazolo[3,4-b]pyrazin-6-yl)amino)ethyl)-4,5-difluorophenyl)-6-(trifluoromethyl)nicotinamide] gave an IC50 [1] of 0.3 to 1 µM and an IC50 [2] of 0.3 to 1 µM.

`CCn1cc2ncc(N[C@@H](C)c3cccc(NC(=O)c4cnc5c(c4)CCC5)c3)nc2n1` [Compound 58, (S)-N-(3-(1-((2-ethyl-2H-pyrazolo[3,4-b]pyrazin-6-yl)amino)ethyl)phenyl)-6,7-dihydro-5H-cyclope3nta[6] pyridine-3-carboxamide] was tested, and the IC50 [1] was less than 0.3 µM and the IC50 [2] was less than 0.3 µM.

`Cc1cncc(C(=O)Nc2cccc([C@H](C)Nc3cnc4[nH]ncc4n3)c2)c1` [Compound 529, (S)-N-(3-(1-((1H-pyrazolo[3,4-b]pyrazin-5-yl)amino)ethyl)phenyl)-5-methylnicotinamide] gave an IC50 [1] of less than 0.3 µM and an IC50 [2] of less than 0.3 µM.

With `C[C@H](Nc1cnc2cnn(C)c2n1)c1cccc(NC(=O)c2cncc(C3COC3)c2)c1` [Compound 114, (S)-N-(3-(1-((1-methyl-1H-pyrazolo[3,4-b]pyrazin-6-yl)amino)ethyl)phenyl)-5-(oxetan-3-yl)nicotinamide] the IC50 [1] was less than 0.3 µM and the IC50 [2] was less than 0.3 µM.

With `CCn1cc2ncc(N[C@@H](C)c3cc(NC(=O)c4ccc(OC5CCN(C)CC5)c(C(F)(F)F)c4)ccc3F)nc2n1` [Compound 431, (S)-N-(3-(1-((2-ethyl-2H-pyrazolo[3,4-b]pyrazin-6-yl)amino)ethyl)-4-fluorophenyl)-4-((1-methylpiperidin-4-yl)oxy)-3-(trifluoromethyl)benzamide] the IC50 [1] was less than 0.3 µM and the IC50 [2] was less than 0.3 µM.

`Cc1cncc(C(=O)Nc2cccc([C@H](C)Nc3cnc4cn(-c5cccnc5)nc4n3)c2)c1` [Compound 463, (S)-5-methyl-N-(3-(1-((2-(pyridin-3-yl)-2H-pyrazolo[3,4-b]pyrazin-6-yl)amino)ethyl)phenyl)nicotinamide] was tested, and the IC50 [1] was less than 0.3 µM and the IC50 [2] was less than 0.3 µM.

In the case of `Cc1c[nH]c2ncc(N[C@@H](C)c3cccc(NC(=O)c4cnn(C5CC5)c4)c3)nc12` [Compound 573, (s)-1-cyclopropyl-N-(3-(1-((7-methyl-5H-pyrrolo[2,3-b]pyrazin-2-yl)amino)ethyl)phenyl)-1H-pyrazole-4-carboxamide], the IC50 [1] is reported as less than 0.3 µM and the IC50 [2] is reported as less than 0.3 µM.
